{"source": "paper PMC6270099", "about": "“Synthesis, Biological Evaluation, and Pharmacokinetic Study of Novel Liguzinediol Prodrugs” (Molecules, 2013)", "key": {"[1]": {"experiment": "Metabolic stability and formation of parent compound in rat liver microsomes", "assay_type": "in vitro ADME", "conditions": "NADPH, 37 °C, up to 3 h", "protocol": "(§1) Analysis was performed by using a Waters Alliance HPLC system (2695 pump, and 2489 PDA detector) with the following chromatographic parameters: wavelength, 278 nm; injection volume, 20 μL; run time, 20 min. The chromatographic separation was performed on an Phecda C18 (4.6 mm × 250 mm, 5 μm) column with a gradient elution of methanol and deionized water. Flow rate was 1.0 mL/min at 30 °C.\nRat liver microsomes were prepared in house by a previously published method and used immediately in the experiments. Protein concentrations were determined by a Lowry protein assay.\nRat liver microsomes (2.0 mg/mL protein concentration), NADPH (1.0 mM solution, Sigma, Shanghai, China), Tris-HCl buffer (50 mM, pH 7.4, Sigma, Shanghai, China), test compound in aqueous solution (30 mM, 20 μL).\nTris-HCl buffer (780 μL), 1.0 mM NADPH solution (100 μL), and 100 μL of rat liver microsomes were mixed and vortexed at 37 °C for 5 min. To this mixture, 30 mM drug in aqueous solution (20 μL) was injected and vortexed well. Sample (100 μL) was immediately taken out (0 min) and transferred to the centrifuge tube containing ice cold dissolvent (ethanol-ethyl acetate = 1:4 v/v, 1 mL). […] The percentage of prodrug remaining was calculated according to the following equation: % remaining = peak area at respective time (min)/peak area at 0 min × 100% (2)"}, "[2]": {"set-up": "method as in earlier work", "conditions": "cited from earlier work; for AUC0–t / AUC0–∞ / Cmax / Tmax / t1/2: rat"}, "[3]": {"experiment": "In vitro physiological stability and formation of parent compound in rat plasma", "assay_type": "in vitro ADME", "conditions": "37 °C, up to 3 h", "protocol": "as §1\nRat plasma was harvested from in-house rats. Fresh blood was collected from the male rat using a retro-orbital bleeding method in a tube containing heparin (100 IU/mL blood). After the collection of blood, plasma was separated from the blood by centrifugation at 5,000 rpm for 10 min. The supernatant plasma was separated and utilized for the further experiment.\nThe test compound in aqueous solution 30 mM (20 μL) was dissolved in rat plasma (980 μL). Immediately after addition (0 min), aliquots (100 μL) were removed and added to ice cold dissolvent (ethanol-ethyl acetate = 1:4 v/v, 1 mL) and mixed well by vortexing for 2 min. The mixture was centrifuged at 12,000 rpm for 10 min, and the supernatant was diluted with methanol and analyzed by HPLC. After 0 min, the remaining sample was incubated at 37 °C for 1, 2, and 3 h. […]"}}, "note": "Read-outs that look alike come from different tables or passages of the source."}
{"smiles": "Cc1nc(CO)c(C)nc1CO", "note": "[1a, Liguzinediol]", "values": [{"measurement": "metabolic stability", "setting": "[1]", "result": "fairly stable"}, {"measurement": "AUC0–t", "setting": "[2]; LZDO 10 mg·kg^−1 i.g.", "result": "16.74 ± 8.90", "unit": "mg·h/L"}, {"measurement": "AUC0–∞", "setting": "[2]; LZDO 10 mg·kg^−1 i.g.", "result": "17.08 ± 8.99", "unit": "mg·h/L"}, {"measurement": "Cmax", "setting": "[2]; LZDO 10 mg·kg^−1 i.g.", "result": "8.58 ± 2.66", "unit": "mg/L"}, {"measurement": "Tmax", "setting": "[2]; LZDO 10 mg·kg^−1 i.g.", "result": "17.4 ± 6", "unit": "min"}, {"measurement": "t1/2", "setting": "[2]; LZDO 10 mg·kg^−1 i.g.", "result": "2.21 ± 1.11", "unit": "h"}, {"measurement": "AUC0–t", "setting": "[2]; LZDO 20 mg·kg^−1 i.g.", "result": "34.84 ± 24.64", "unit": "mg·h/L"}, {"measurement": "AUC0–∞", "setting": "[2]; LZDO 20 mg·kg^−1 i.g.", "result": "35.93 ± 24.08", "unit": "mg·h/L"}, {"measurement": "Cmax", "setting": "[2]; LZDO 20 mg·kg^−1 i.g.", "result": "17.02 ± 5.50", "unit": "mg/L"}, {"measurement": "Tmax", "setting": "[2]; LZDO 20 mg·kg^−1 i.g.", "result": "17.4 ± 6", "unit": "min"}, {"measurement": "t1/2", "setting": "[2]; LZDO 20 mg·kg^−1 i.g.", "result": "2.57 ± 2.14", "unit": "h"}, {"measurement": "AUC0–t", "setting": "[2]; LZDO 50 mg·kg^−1 i.g.", "result": "92.85 ± 64.10", "unit": "mg·h/L"}, {"measurement": "AUC0–∞", "setting": "[2]; LZDO 50 mg·kg^−1 i.g.", "result": "94.82 ± 66.88", "unit": "mg·h/L"}, {"measurement": "Cmax", "setting": "[2]; LZDO 50 mg·kg^−1 i.g.", "result": "49.33 ± 10.50", "unit": "mg/L"}, {"measurement": "Tmax", "setting": "[2]; LZDO 50 mg·kg^−1 i.g.", "result": "17.4 ± 6", "unit": "min"}, {"measurement": "t1/2", "setting": "[2]; LZDO 50 mg·kg^−1 i.g.", "result": "1.78 ± 0.57", "unit": "h"}, {"measurement": "half-life", "setting": "[2]; after intragastric administration, rats", "result": "about 2 h"}, {"measurement": "metabolic stability", "setting": "[3]", "result": "fairly stable"}]}
